In patent US20220324835A1 (Nurix Therapeutics, Inc., priority 2018, published 2022):

Assays:
[1] = target: T1, Cbl-b (Homo sapiens, UniProt Q13191); assay: Cbl-b inhibition assay (Cbl-b activity assay, FRET, Biological Example 1; 100 mM NaCl, 60 nM Src kinase); type: biochemical; settings: upper bound stated in text lists; read-out: IC50 values in the Cbl-b inhibition assay of Biological Example 1
Method in brief: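 Here, the E2 UbcH5B, irreversibly linked to Bodipy-fluorescein ubiquitin, binds Cbl-b once Src kinase phosphorylates it; Cbl-b carries an N-terminal biotinylated Avi-tag captured by streptavidin-terbium. An absent FRET signal indicates inhibition.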

[2] = test system: T-cell; assay: IL-2 secretion from T-cells co-stimulated with anti-CD3 and anti-CD28 antibody (Biological Example 2); type: cell-based, human; settings: Homo sapiens, T-cell, fold change over baseline, primary human total T-cells, read-out: IL-2 secretion Anti-CD3/Anti-CD28 stimulation; for fold induction at 0.3 µM: 0.3 μM Cbl-b inhibitor; for fold induction at 1 µM: 1 μM Cbl-b inhibitor; for fold induction at 4 µM: 4 μM Cbl-b inhibitor
Method in brief: (§1)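 Values are fold-change over baseline: readings (IL-2 release, CD25 staining) from inhibitor-treated T-cells divided against untreated cells […]. No detailed procedure stated.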

[3] = test system: T-cell; assay: CD25 cell surface staining on T-cells co-stimulated with anti-CD3 and anti-CD28 antibody (Biological Example 2); type: cell-based, human; settings: Homo sapiens, T-cell, fold change over baseline, primary human total T-cells, read-out: CD25 staining Anti-CD3/Anti-CD28 stimulation; for fold induction at 0.3 µM: 0.3 μM Cbl-b inhibitor; for fold induction at 1 µM: 1 μM Cbl-b inhibitor; for fold induction at 4 µM: 4 μM Cbl-b inhibitor
Method in brief: as §1

[4] = target: T1, Cbl-b; assay: Cbl-b activity assay (Cbl-b inhibition assay), TR-FRET of Cbl-b interaction with UbcH5B-Ub; type: biochemical; settings: assay buffer with 100 mM NaCl, 60 nM Src kinase; read-out: Cbl-b activity IC50
Method in brief: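 Compound-treated Cbl-b was incubated 1.5 h with Src kinase (60 nM final; 30 nM for asterisked values, which also used 50 mM instead of 100 mM NaCl), 1 mM ATP and 5 mM MgCl2. Binding to fluorescent Ub-loaded UbcH5B (C85K mutant) was then read by TR-FRET after 1 h more.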

[5] = target: Cbl-b (residues 36-427) (Homo sapiens, UniProt Q13191); assay: Cbl-b binding assay (SPR, Biacore T200); settings: 20° C., 1:1 binding model
Sequence of Cbl-b (residues 36-427) (Q13191 36-427): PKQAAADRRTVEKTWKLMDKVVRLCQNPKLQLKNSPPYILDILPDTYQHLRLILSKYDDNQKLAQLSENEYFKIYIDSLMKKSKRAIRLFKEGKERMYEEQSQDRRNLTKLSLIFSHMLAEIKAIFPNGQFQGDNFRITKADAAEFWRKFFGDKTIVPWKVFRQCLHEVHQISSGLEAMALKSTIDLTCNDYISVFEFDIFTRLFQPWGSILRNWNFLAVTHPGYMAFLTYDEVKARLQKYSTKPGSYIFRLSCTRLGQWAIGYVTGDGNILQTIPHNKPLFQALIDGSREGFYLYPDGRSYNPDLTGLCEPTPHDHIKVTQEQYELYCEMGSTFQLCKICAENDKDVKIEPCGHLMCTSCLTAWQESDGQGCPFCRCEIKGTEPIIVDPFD
Method in brief: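 NeutrAvidin capture chip, 20° C; 50 s injections at 50 μl/min, 90-180 s dissociation; 0.3 M NaCl regeneration. Asterisked column: 50 mM NaCl buffer and 30 nM Src kinase in place of 100 mM NaCl and 60 nM Src kinase. 1:1 fit.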

T1 sequence (Q13191 36-427): as above

Structure (SMILES) | IC50 [1] [nM] | fold induction at 0.3 µM [2] | fold induction at 1 µM [2] | fold induction at 4 µM [2] | fold induction at 0.3 µM [3] | fold induction at 1 µM [3] | fold induction at 4 µM [3] | IC50 [4] [nM] | Kd [5] [nM]
Cc1ccc(C(=O)Nc2cccc([C@H](C)Cc3nnc[nH]3)c2)nc1C1CC1 [Compound 212, (R)-N-(3-(1-(4H-1,2,4-triazol-3-yl)propan-2-yl)phenyl)-6-cyclopropyl-5-methylpicolinamide] | ≤ 500 | 1.01 to 2.5 | 1.01 to 2.5 | 1.01 to 2.5 | 1.51 to 1.75 | 1.51 to 1.75 | > 1.76 | 301 to 1000 | 1000 to 3000
C[C@H](Sc1nncn1C)c1cccc(NC(=O)c2cc(C(C)(C)O)c(Cl)cn2)c1 [Compound 55, (S)-5-chloro-4-(2-hydroxypropan-2-yl)-N-(3-(1-((4-methyl-4H-1,2,4-triazol-3-yl)thio)ethyl)phenyl)picolinamide] | ≤ 1000 | 1.01 to 2.5 | 1.01 to 2.5 | 1.01 to 2.5 | 1.01 to 1.3 | 1.01 to 1.3 | 1.01 to 1.3 | 301 to 1000 | 1000 to 3000
C[C@H](Cc1nncn1C)c1cccc(N2Cc3c(ccnc3C3CCC3)C2=O)c1 [Compound 258, (R)-4-cyclobutyl-2-(3-(1-(4-methyl-4H-1,2,4-triazol-3-yl)propan-2-yl)phenyl)-2,3-dihydropyrrolo[3,4-c]pyridin-1-one] | ≤ 500 | 1.01 to 2.5 | 2.51 to 5 | 5 to 7.5 | < 1 | 1.01 to 1.3 | 1.01 to 1.3 | 100 to 300 | 3000 to 10000
Cc1ccc(C(=O)Nc2cccc([C@H](C)Sc3nncn3C)c2)nc1C(F)(F)F [Compound 61, (S)-5-methyl-N-(3-(1-((4-methyl-4H-1,2,4-triazol-3-yl)thio)ethyl)phenyl)-6-(trifluoromethyl)picolinamide] | ≤ 500 | < 1 | < 1 | 1.01 to 2.5 | < 1 | 1.01 to 1.3 | 1.01 to 1.3 | 100 to 300 | 100 to 300
C[C@H](Cc1nncn1C)c1cccc(NC(=O)c2cc(S(N)(=O)=O)cc(C(F)(F)F)n2)c1 [Compound 200, (R)-N-(3-(1-(4-methyl-4H-1,2,4-triazol-3-yl)propan-2-yl)phenyl)-4-sulfamoyl-6-(trifluoromethyl)picolinamide] | ≤ 500 | < 1 | < 1 | 1.01 to 2.5 | 1.01 to 1.3 | 1.01 to 1.3 | 1.01 to 1.3 | 100 to 300 | 301 to 1000
C[C@H](Cc1nncn1C)c1cc(NCCO)nc(N2Cc3c(cccc3C(F)(F)F)C2=O)c1 [Compound 357, (R)-2-(6-(2-hydroxyethylamino)-4-(1-(4-methyl-4H-1,2,4-triazol-3-yl)propan-2-yl)pyridin-2-yl)-4-(trifluoromethyl)isoindolin-1-one] | ≤ 300 | 1.01 to 2.5 | 1.01 to 2.5 | 2.51 to 5 | 1.01 to 1.3 | 1.01 to 1.3 | 1.01 to 1.3 | 100 to 300 | 100 to 300
C[C@H](Sc1nncn1C)c1ccc(F)c(NC(=O)c2cccc(C(F)(F)F)n2)c1 [Compound 95a, (S)-N-(2-fluoro-5-(1-((4-methyl-4H-1,2,4-triazol-3-yl)thio)ethyl)phenyl)-6-(trifluoromethyl)picolinamide] | ≤ 500 | 1.01 to 2.5 | 1.01 to 2.5 | 2.51 to 5 | < 1 | 1.01 to 1.3 | 1.01 to 1.3 | 301 to 1000 | 1000 to 3000
Cn1cnnc1CC(C)(F)c1cccc(N2Cc3c(cccc3C(F)(F)F)C2=O)c1 (racemic) [Compound 298, 2-(3-(2-fluoro-1-(4-methyl-4H-1,2,4-triazol-3-yl)propan-2-yl)phenyl)-4-(trifluoromethyl)isoindolin-1-one] | ≤ 500 | 5 to 7.5 | 5 to 7.5 | > 7.5 | < 1 | 1.01 to 1.3 | 1.01 to 1.3 | 100 to 300 | < 100
Cc1cc(C(=O)Nc2cccc([C@@](C)(F)C(F)(F)c3nncn3C)c2)nc(C2CC2)n1 [Compound 344, (R)-2-Cyclopropyl-6-methyl-N-(3-(1,1,2-trifluoro-1-(4-methyl-4H-1,2,4-triazol-3-yl)propan-2-yl)phenyl)pyrimidine-4-carboxamide] | ≤ 300 | 1.01 to 2.5 | 2.51 to 5 | > 7.5 | 1.01 to 1.3 | 1.31 to 1.5 | 1.31 to 1.5 | 100 to 300 | < 100
C[C@H](Sc1nncn1C)c1cccc(NC(=O)c2cc(C(C)(C)O)cc(C(F)(F)F)n2)c1 [Compound 85, 4-(1-hydroxy-1-methyl-ethyl)-N-[3-[(1S)-1-[(4-methyl-1,2,4-triazol-3-yl)sulfanyl]ethyl]phenyl]-6-(trifluoromethyl)pyridine-2-carboxamide] | ≤ 500 | < 1 | < 1 | 1.01 to 2.5 | 1.01 to 1.3 | 1.01 to 1.3 | 1.01 to 1.3 | 100 to 300 | 301 to 1000
Cc1cccc2nc(C(=O)Nc3cccc([C@H](C)Sc4nncn4C)c3)ccc12 [Compound 48, 5-Methyl-N-[3-[(1S)-1-[(4-methyl-4H-1,2,4-triazol-3-yl)sulfanyl]ethyl]phenyl]quinoline-2-carboxamide] | ≤ 500 | 2.51 to 5 | 5 to 7.5 | > 7.5 | 1.01 to 1.3 | 1.01 to 1.3 | 1.01 to 1.3 | 301 to 1000 | 1000 to 3000
C[C@H](Cc1nncn1C)c1cccc(NC(=O)c2ccnc(C(F)(F)F)n2)c1 [Compound 187, (R)-N-(3-(1-(4-methyl-4H-1,2,4-triazol-3-yl)propan-2-yl)phenyl)-2-(trifluoromethyl)pyrimidine-4-carboxamide] | ≤ 500 | 1.01 to 2.5 | 2.51 to 5 | > 7.5 | 1.51 to 1.75 | > 1.76 | > 1.76 | 100 to 300 | 100 to 300
C[C@H](Sc1nncn1C)c1cccc(N2Cc3c(cccc3C(F)(F)F)C2=O)c1 [Compound 166a, (S)-2-(3-(1-((4-methyl-4H-1,2,4-triazol-3-yl)thio)ethyl)phenyl)-4-(trifluoromethyl)isoindolin-1-one] | ≤ 500 | < 1 | < 1 | 1.01 to 2.5 | < 1 | 1.01 to 1.3 | 1.01 to 1.3 | 100 to 300 | 301 to 1000
C[C@H](Cc1nncn1C)c1cccc(NC(=O)c2cccc(C(F)(F)CO)n2)c1 [Compound 188, (R)-6-(1,1-difluoro-2-hydroxyethyl)-N-(3-(1-(4-methyl-4H-1,2,4-triazol-3-yl)propan-2-yl)phenyl)picolinamide] | ≤ 500 | < 1 | < 1 | < 1 | 1.01 to 1.3 | 1.31 to 1.5 | > 1.76 | 100 to 300 | 301 to 1000
